Measured values: patent US8501816B2, “Antitussive compositions comprising memantine” (Cerecor, Inc., priority 2010, dated 2013)

How the values were obtained:
[1] = Respiratory parameters during cough challenge; type: in vivo, guinea pig; details: 10 mg/kg memantine, p=0.012
Protocol: (§1) Using a similar chamber and nebulizer system, animals were treated first with aerosolized peptidase inhibitors (captopril 0.1 μM and thiorphan 0.1 μM, 5 minutes nebulization) to reduce bradykinin degradation and enhance tussive responses evoked by bradykinin (unpublished observations). Animals were then exposed to increasing concentrations of aerosolized bradykinin (0.1-3 mg/mL), again for 5 minute periods. Coughs are counted during this and the subsequent 5 minutes. Pressure changes within the chamber are used to monitor respiratory rate (Biopac Systems Inc, Goleta, Calif.).

[2] = test system: bradykinin induced cough; experiment: Bradykinin induced cough in conscious guinea pigs; type: in vivo, guinea pig
Protocol: as §1

[3] = test system: sigma receptor; details: cited from earlier work
[4] = around pH 6.0; cited from earlier work
[5] = test system: freezing behavior during cued fear conditioning; experiment: Cued fear conditioning in mice; type: in vivo
Protocol: The effects of memantine on enhancing cognition were investigated with fear conditioning tests on mice. Specifically, the fear conditioning test exposed mice to a conditioned stimulus (a tone) and an unconditioned stimulus (a mild electric shock). The mice learned to associate the tone with the shock as reflected by freezing. After being adequately conditioned, the mice were administered memantine or a control (vehicle alone). […] Fear Conditioning: Fear conditioning mouse chambers (7''W×7''D×12''H; Coulbourne Instruments, […] Valley, Pa.) were housed in sound attenuating chambers. A camera was mounted on the ceiling of the chamber to capture mouse behavior (FreezeFrame software, Coulbourne Instruments, […] Valley, Pa.); data were analyzed by Freezeview software (Coulbourne Instruments, […] Valley, Pa.). Fear conditioning chambers were calibrated prior to each experiment to ensure that each chamber delivers the same shock intensity. […] Pavlovian fear conditioning refers to the learning of associations between a negative reinforcer (e.g., a mild electric foot shock/s), a novel context (e.g. a context) and/or a specific, neutral, cue (e.g., tone or white noise). To assess contextual and cued (tone) learning and memory, a standardized fear conditioning task developed for the evaluation of memory in rodents was used. Protocol: […] Cue-induced Conditioning Testing: Mice were tested for cued memory 48 hours after training. The cued conditioning test was conducted in an altered context (i.e., a different test chamber). […] Statistical Analysis: Data are represented as the mean and standard error to the mean. Data were analyzed by analysis of variance (ANOVA) followed by Fisher PLSD, or unpaired t-tests, when appropriate to test a planned comparison. An effect was considered significant if p<0.05. Statistical outliers that fell above or below two standard deviations from the mean were removed from the final analysis.

With `CC12CC3CC(C)(C1)CC(N)(C3)C2` [Memantine, 3,5-dimethyltricyclo[3.3.1.1^3,7]decan-1-amine] the “Change of breathing frequency induced by bradykinin” value [1] was “small increase in breathing frequency”, the “Effect on number of coughs evoked by bradykinin aerosols compared to control” value ([2]; FIG. 4, p<0.01) was “significantly reduced the number of coughs evoked by bradykinin” and the “Cumulative coughs, 0.3M bradykinin challenge” value (shortened to “Cumulative coughs”) ([2]; MMT 3 mg/kg i.p. 1 hour pre-bradykinin challenge) was 20 ± 5. For the same compound, the “Cumulative coughs” value ([2]; MMT 10 mg/kg i.p. 1 hour pre-bradykinin challenge) was 1.3±0.8, the “Cumulative coughs” value ([2]; MMT 10 mg/kg i.p. 1 hour pre-bradykinin challenge, listed as MMT) was 1.3 ± 0.8 and the “cumulative number of coughs evoked by 0.1-3 mg/mL bradykinin, median” value ([2]; memantine 10 mg/kg, controls 16 coughs) was 0.0 coughs. The interaction with receptor [3] was “does not interact”, the ionization [4] was “completely ionized” and the “cue-induced fear conditioning, CS phase, vs vehicle-diphenhydramine 20 mg/kg” value ([5]; memantine 10 mg/kg IP + diphenhydramine 20 mg/kg) was “significantly increased cue-induced fear conditioning”. For the same compound, the “post-CS freezing vs vehicle-diphenhydramine” value ([5]; memantine 20 mg/kg plus diphenhydramine) was “strong trend (p=0.052) toward a significant increase in post-CS freezing”.
